This passage reports arterial blood pressure and solubility in water results from patent US7018979B1, “Method for using potassium channel agonists for delivering a medicant to an abnormal brain region and/or a malignant tumor” (Cedars-Sinai Medical Center, priority 2000, dated 2006).

Entries after “also recorded” stand apart in the source; their conditions may differ. Where a name gives a salt, the structure may show the parent alone.

Data set [1] in a line: Arterial blood pressure monitored during intracarotid infusion. The conditions noted are these: higher doses, 100 and 110 μg/kg/min.
For data set [2] the following is noted: cited from earlier work.

In the case of `O=c1[nH]c2cc(C(F)(F)F)ccc2n1-c1cc(C(F)(F)F)ccc1O` [NS-1619, 1,3-dihydro-1-[2-hydroxy-5-(trifluoromethyl)phenyl]-5-(trifluoromethyl)-2H-benzimidazol-2-one], the arterial blood pressure entry in data set [1] was “significant drop”. For the same molecule, in data set [2], the solubility in water result is “not easily dissolved in water”.

Regarding `CC(N/C(=N\C#N)Nc1ccncc1)C(C)(C)C` (racemic) [pinacidil, (+/−)-N-cyano-N′-4-pyridinyl-N″-(1,2,2-trimethylpropyl)-guanidine], the solubility in water result in data set [2] is recorded as “insoluble in water; also recorded: not easily dissolved in water”.

In the case of `CC1=NS(=O)(=O)c2cc(Cl)ccc2N1` [diazoxide], the solubility in water result in data set [2] is reported as “not easily dissolved in water”.

As for `Nc1cc(N2CCCCC2)nc(N)[n+]1OS(=O)(=O)[O-]` [minoxidil sulfate], the solubility in water result in data set [2] is on record as “not easily dissolved in water”.
